Assay [1] concerns the target T1, TLR2 (Mus musculus, UniProt Q9QUN7).
T1 construct: endogenous in cells; host or cells: RAW 264.7
Kind of assay: TLR2 functional assay, cytokine release from RAW 264.7 mouse macrophage cell line. The class given is cell-based. Conditions: average of all runs. On the procedure: Cells of the immune system respond to TLR agonists in part by secreting cytokines. Functional assays for TLR2 agonists measure cytokine release from purified immune cells or immortalized cell lines derived from immune cells. Cytokine release is measured by standard ELISA approaches or multiplexed analysis using the Meso Scale Discovery (MSD) platform.
Purified primary human peripheral blood mononuclear cells or RAW 264.7 mouse macrophage cell line cells are plated at approximately 40,000 cells per well. Cells are treated with agonist compounds and assays 6-24 hours post-treatment for cytokines released into the cell culture media.
Following assay measurements utilizing either HEK-Blue detection or cytokine release, all data is analyzed with the GraphPad Prism8 statistical package to determine EC50, binding and activity metrics for the TLR2 modulators.
Numerous cell lines derived from various cell types can respond to TLR2 agonists with stereotyped cytokine and chemokine secretion. In particular, cell lines derived from macrophages respond robustly to TLR2 agonists by secreting a wide array of cytokines, including (but not limited to) TNF-alpha, IL-1, IL-10 and IL-12. The human monocytic cell line THP-1, the mouse macrophage line RAW-264.7, and the rat macrophage line NR8383 were used. For each assay, the respective cell lines were plated into 96-well plates overnight and then treated the following day with various TLR2-engaging compounds at varying concentrations. The next day, supernatants were collected and assayed by multiplex immunodetection for cytokines released (MSD detection kits for respective species).
Data provided in Table 5 is generated using protocols described in Example 45 and 46.

For assay [2], the target named is TLR2 (Homo sapiens, UniProt O60603). Kind of assay: TLR2 agonist screening assay, HEK-Blue TLR2 reporter cell line (NF-kB-driven SEAP, absorbance at 600 nm). The settings on record: HEK-Blue TLR2 reporter cells, agonist mode; average of all runs (Table 4). Also on record: host or cells: HEK-293 (HEK-Blue TLR2 reporter cell line). The class given is cell-based. Put shortly:
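HEK-293 cells expressing TLR2 with NF-kB-driven SEAP were plated at 40,000 per well. After 16-24 h, they were treated overnight with diluted agonists in detection medium (1% DMSO final). Absorbance at 600 nm was read, and EC50 values were fitted.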

T1 sequence (Q9QUN7 25-784): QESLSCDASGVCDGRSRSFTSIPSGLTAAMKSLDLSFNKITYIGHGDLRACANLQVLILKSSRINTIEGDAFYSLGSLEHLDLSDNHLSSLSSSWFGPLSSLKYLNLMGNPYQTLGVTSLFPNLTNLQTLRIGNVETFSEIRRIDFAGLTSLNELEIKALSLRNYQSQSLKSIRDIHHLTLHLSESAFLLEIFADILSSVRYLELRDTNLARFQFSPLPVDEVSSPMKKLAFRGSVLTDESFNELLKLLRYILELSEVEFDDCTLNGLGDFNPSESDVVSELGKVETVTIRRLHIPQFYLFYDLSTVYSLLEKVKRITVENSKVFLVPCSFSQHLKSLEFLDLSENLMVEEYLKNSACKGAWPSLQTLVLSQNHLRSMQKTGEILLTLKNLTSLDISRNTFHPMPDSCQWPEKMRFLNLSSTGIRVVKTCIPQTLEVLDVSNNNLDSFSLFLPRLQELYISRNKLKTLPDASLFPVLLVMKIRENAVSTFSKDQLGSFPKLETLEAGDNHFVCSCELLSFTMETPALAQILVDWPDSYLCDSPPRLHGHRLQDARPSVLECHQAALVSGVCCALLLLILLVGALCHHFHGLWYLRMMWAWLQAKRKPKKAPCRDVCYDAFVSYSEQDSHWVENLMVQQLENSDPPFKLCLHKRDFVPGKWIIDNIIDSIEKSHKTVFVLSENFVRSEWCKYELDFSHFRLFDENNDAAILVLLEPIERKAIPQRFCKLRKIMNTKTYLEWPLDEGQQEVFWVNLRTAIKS
Sequence of TLR2 (Homo sapiens, UniProt O60603) (O60603 21-784): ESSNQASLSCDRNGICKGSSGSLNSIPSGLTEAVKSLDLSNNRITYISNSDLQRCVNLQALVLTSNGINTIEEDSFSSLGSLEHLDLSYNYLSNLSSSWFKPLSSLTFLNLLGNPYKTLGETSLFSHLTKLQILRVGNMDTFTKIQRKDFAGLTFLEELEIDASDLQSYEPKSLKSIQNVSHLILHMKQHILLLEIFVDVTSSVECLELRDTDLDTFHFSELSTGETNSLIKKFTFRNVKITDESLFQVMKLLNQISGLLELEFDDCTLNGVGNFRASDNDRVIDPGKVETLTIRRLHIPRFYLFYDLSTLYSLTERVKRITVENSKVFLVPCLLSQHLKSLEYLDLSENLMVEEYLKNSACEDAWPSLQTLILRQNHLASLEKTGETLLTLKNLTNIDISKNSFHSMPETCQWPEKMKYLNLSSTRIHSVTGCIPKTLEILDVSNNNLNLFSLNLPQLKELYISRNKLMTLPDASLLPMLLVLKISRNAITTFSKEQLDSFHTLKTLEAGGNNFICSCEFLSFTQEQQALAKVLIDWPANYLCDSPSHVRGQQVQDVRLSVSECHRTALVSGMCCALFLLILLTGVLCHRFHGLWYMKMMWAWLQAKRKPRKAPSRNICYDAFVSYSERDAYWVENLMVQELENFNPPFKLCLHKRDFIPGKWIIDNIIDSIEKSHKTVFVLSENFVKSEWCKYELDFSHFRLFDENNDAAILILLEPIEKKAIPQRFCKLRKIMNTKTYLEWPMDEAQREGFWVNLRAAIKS

As for `CCCCCCCCCCCNC(=O)N[C@H]1CN(C(c2ccc(C(=O)N3C[C@@H](C(=O)N[C@H]4C[C@@H]4c4ccccc4)[C@H](C(=O)N[C@H]4C[C@@H]4c4ccccc4)C3)cc2)C(F)(F)F)C[C@@H]1OC` (single isomer, unassigned) [Compound 230, (3S,4S)—N3,N4-bis((1S,2R)-2-phenylcyclopropyl)-1-(4-((R*)-2,2,2-trifluoro-1-((3S,4S)-3-methoxy-4-(3-undecylureido)pyrrolidin-1-yl)ethyl)benzoyl)pyrrolidine-3,4-dicarboxamide], the EC50 (in general, the midpoint of the concentration-response curve) in assay [1] was > 1000 nM; in assay [2], 0.1 to 50 nM.

For `CCCCCCCCCCCNC(=O)N[C@H]1CN(C(=O)c2ccc(C(=O)N3C[C@@H](C(=O)N[C@H]4C[C@@H]4c4ccccc4)[C@H](C(=O)N[C@H]4C[C@@H]4c4ccccc4)C3)cc2)C[C@@H]1OC` [Compound 199, (3S,4S)-1-(4-((3S,4S)-3-methoxy-4-(3-undecylureido)pyrrolidine-1-carbonyl)benzoyl)-N3,N4-bis((1S,2R)-2-phenylcyclopropyl)pyrrolidine-3,4-dicarboxamide], the concentration for a half-maximal effect (EC50) in assay [1] is > 1000 nM; in assay [2], 0.1 to 50 nM.

With `CCCCCCCCCCCOC(=O)N[C@H]1CN(C(=O)c2ccc(C(=O)N3C[C@@H](C(=O)N[C@H]4C[C@@H]4c4ccccc4)[C@H](C(=O)N[C@H]4C[C@@H]4c4ccccc4)C3)cc2)C[C@@H]1OC` [Compound 215, undecyl ((3S,4S)-1-(4-((3S,4S)-3,4-bis(((1S,2R)-2-phenylcyclopropyl)carbamoyl)pyrrolidine-1-carbonyl)benzoyl)-4-methoxypyrrolidin-3-yl)carbamate], the EC50 in assay [1] was > 1000 nM; in assay [2] it was 51 to 350 nM.

As for `CCCCCCNC(=O)[C@H](CNC(=O)c1ccc(C(=O)N2C[C@@H](C(=O)N[C@H]3C[C@@H]3c3ccccc3)[C@H](C(=O)N[C@H]3C[C@@H]3c3ccccc3)C2)cc1)NC(=O)N[C@H]1C[C@@H]1c1ccccc1` [Compound 222, (3S,4S)-1-(4-(((S)-3-(hexylamino)-3-oxo-2-(3-((1S,2R)-2-phenylcyclopropyl)ureido)propyl)carbamoyl)benzoyl)-N3,N4-bis((1S,2R)-2-phenylcyclopropyl)pyrrolidine-3,4-dicarboxamide], the EC50 in assay [1] was in the range of 51 to 350 nM; in assay [2] it was 0.1 to 50 nM.

Regarding `CCCCCCCCCCCCOC(=O)N[C@H]1CN(C(=O)c2ccc(C(=O)N3C[C@@H](C(=O)N[C@H]4C[C@@H]4c4ccccc4)[C@H](C(=O)N[C@H]4C[C@@H]4c4ccccc4)C3)cc2)C[C@@H]1OC` [Compound 216, dodecyl ((3S,4S)-1-(4-((3S,4S)-3,4-bis(((1S,2R)-2-phenylcyclopropyl)carbamoyl)pyrrolidine-1-carbonyl)benzoyl)-4-methoxypyrrolidin-3-yl)carbamate], the EC50 in assay [1] was > 1000 nM; in assay [2], 0.1 to 50 nM.

`CCCCCCCCNC(=O)[C@H](CNC(=O)c1ccc(C(=O)N2C[C@@H](C(=O)N[C@H]3C[C@@H]3c3ccccc3)[C@H](C(=O)N[C@H]3C[C@@H]3c3ccccc3)C2)cc1)NC(=O)CCCCCCCC` [Compound 197, (3S,4S)-1-(4-(((S)-2-nonanamido-3-(octylamino)-3-oxopropyl)carbamoyl)benzoyl)-N3,N4-bis((1S,2R)-2-phenylcyclopropyl)pyrrolidine-3,4-dicarboxamide]: the EC50 was 351 to 1000 nM in assay [1] and 0.1 to 50 nM in assay [2].

On to `CCCCCCCCCCCCCCC(=O)N[C@@H]1CN(C(=O)c2ccc(C(=O)N3C[C@@H](C(=O)N[C@H]4C[C@@H]4c4ccccc4)[C@H](C(=O)N[C@H]4C[C@@H]4c4ccccc4)C3)cc2)C[C@@H]1OC` [Compound 209, (3S,4S)-1-(4-((3S,4R)-3-methoxy-4-pentadecanamidopyrrolidine-1-carbonyl)benzoyl)-N3,N4-bis((1S,2R)-2-phenylcyclopropyl)pyrrolidine-3,4-dicarboxamide], for which the EC50 in assay [1] is > 1000 nM; in assay [2] it was 0.1 to 50 nM.

As for `CCCCCCCCOC(=O)N[C@@H](CNC(=O)c1ccc(C(=O)N2C[C@@H](C(=O)N[C@H]3C[C@@H]3c3ccccc3)[C@H](C(=O)N[C@H]3C[C@@H]3c3ccccc3)C2)cc1)C(=O)NCCCCCC` [Compound 228, octyl ((S)-3-(4-((3S,4S)-3,4-bis(((1S,2R)-2-phenylcyclopropyl)carbamoyl)pyrrolidine-1-carbonyl)benzamido)-1-(hexylamino)-1-oxopropan-2-yl)carbamate], the EC50 in assay [1] is > 1000 nM; in assay [2], 0.1 to 50 nM.

Regarding `CCCCCCCNC(=O)N[C@@H](Cn1cc(-c2ccc(C(=O)N3C[C@@H](C(=O)N[C@H]4C[C@@H]4c4ccccc4)[C@H](C(=O)N[C@H]4C[C@@H]4c4ccccc4)C3)cc2)nn1)C(=O)NCCCCCC` [Compound 220, (3S,4S)-1-(4-(1-((S)-2-(3-heptylureido)-3-(hexylamino)-3-oxopropyl)-1H-1,2,3-triazol-4-yl)benzoyl)-N3,N4-bis((1S,2R)-2-phenylcyclopropyl)pyrrolidine-3,4-dicarboxamide], the EC50 in assay [1] and in assay [2] was 0.1 to 50 nM each time.

As to `CCCCCCCCCCCCCNC(=O)N[C@H]1CN(C(=O)c2ccc(C(=O)N3C[C@@H](C(=O)N[C@H]4C[C@@H]4c4ccccc4)[C@H](C(=O)N[C@H]4C[C@@H]4c4ccccc4)C3)cc2)C[C@@H]1OC` [Compound 134, (3S,4S)-1-(4-((3S,4S)-3-methoxy-4-(3-tridecylureido)pyrrolidine-1-carbonyl)benzoyl)-N3,N4-bis((1S,2R)-2-phenylcyclopropyl)pyrrolidine-3,4-dicarboxamide], the EC50 fell in the range of 351 to 1000 nM in assay [1] and 0.1 to 50 nM in assay [2].

Regarding `CCCCCCCCCCCCCNC(=O)N[C@@H]1CCCN(C(=O)c2ccc(C(=O)N3C[C@@H](C(=O)N[C@H]4C[C@@H]4c4ccccc4)[C@H](C(=O)N[C@H]4C[C@@H]4c4ccccc4)C3)cc2)C1` [Compound 205, (3S,4S)—N3,N4-bis((1S,2R)-2-phenylcyclopropyl)-1-(4-((R)-3-(3-tridecylureido)piperidine-1-carbonyl)benzoyl)pyrrolidine-3,4-dicarboxamide], the EC50 in assay [1] was > 1000 nM; in assay [2], 0.1 to 50 nM.

On to `CCCCCCCNC(=O)N[C@@H](CNC(=O)c1ccc(C(=O)N2C[C@@H](C(=O)N[C@H]3C[C@@H]3c3ccccc3)[C@H](C(=O)N[C@H]3C[C@@H]3c3ccccc3)C2)cc1)C(=O)NCCCCCC` [Compound 181, (3S,4S)-1-(4-(((S)-2-(3-heptylureido)-3-(hexylamino)-3-oxopropyl)carbamoyl)benzoyl)-N3,N4-bis ((1S,2R)-2-phenylcyclopropyl) pyrrolidine-3,4-dicarboxamide], for which the EC50 in assay [1] is > 1000 nM; in assay [2] it was 0.1 to 50 nM.

Take `CCCCCCNC(=O)[C@H](Cn1cc(-c2ccc(C(=O)N3C[C@@H](C(=O)N[C@H]4C[C@@H]4c4ccccc4)[C@H](C(=O)N[C@H]4C[C@@H]4c4ccccc4)C3)cc2)nn1)NC(=O)CCCCCC` [Compound 185, (3S,4S)-1-(4-(1-((S)-2-heptanamido-3-(hexylamino)-3-oxopropyl)-1H-1,2,3-triazol-4-yl)benzoyl)-N3,N4-bis((1S,2R)-2-phenylcyclopropyl)pyrrolidine-3,4-dicarboxamide]: the EC50 in assay [1] and in assay [2] was 0.1 to 50 nM each time.

On to `CCCCCCCOC(=O)N[C@@H](CNC(=O)c1ccc(C(=O)N2C[C@@H](C(=O)N[C@H]3C[C@@H]3c3ccccc3)[C@H](C(=O)N[C@H]3C[C@@H]3c3ccccc3)C2)cc1)C(=O)NCCCCCC` [Compound 227, heptyl ((S)-3-(4-((3S,4S)-3,4-bis(((1S,2R)-2-phenylcyclopropyl)carbamoyl)pyrrolidine-1-carbonyl)benzamido)-1-(hexylamino)-1-oxopropan-2-yl)carbamate], for which the values for the EC50 in assay [1] and in assay [2] were > 1000 nM and 0.1 to 50 nM, respectively.

On to `CCCCCCCCCOC(=O)N[C@@H](CNC(=O)c1ccc(C(=O)N2C[C@@H](C(=O)N[C@H]3C[C@@H]3c3ccccc3)[C@H](C(=O)N[C@H]3C[C@@H]3c3ccccc3)C2)cc1)C(=O)NCCCCCC` [Compound 229, nonyl ((S)-3-(4-((3S,4S)-3,4-bis(((1S,2R)-2-phenylcyclopropyl)carbamoyl)pyrrolidine-1-carbonyl)benzamido)-1-(hexylamino)-1-oxopropan-2-yl)carbamate], for which the concentration giving a half-maximal response (EC50) in assay [1] is > 1000 nM; in assay [2], 0.1 to 50 nM.

With `CCCCCCNC(=O)[C@H](Cn1cnc(-c2ccc(C(=O)N3C[C@@H](C(=O)N[C@H]4C[C@@H]4c4ccccc4)[C@H](C(=O)N[C@H]4C[C@@H]4c4ccccc4)C3)cc2)c1)NC(=O)CCCCCC` [Compound 214, (3S,4S)-1-(4-(1-((S)-2-heptanamido-3-(hexylamino)-3-oxopropyl)-1H-imidazol-4-yl)benzoyl)-N3,N4-bis((1S,2R)-2-phenylcyclopropyl)pyrrolidine-3,4-dicarboxamide], the half-maximal effective concentration (EC50) in assay [1] lay in the range of 0.1 to 50 nM; in assay [2] it was 51 to 350 nM.

These data come from patent US11951094B2, “TLR2 modulator compounds, pharmaceutical compositions and uses thereof” (Axial Therapeutics, Inc., priority 2020, dated 2024).
